Measured values taken from patent publication US8168651B2, “Protein kinase modulators” (Cylene Pharmaceuticals, Inc., priority 2008, dated 2012).
Blank lines part the entries; values can stand above or below the compound they belong to.

Key:
[1] = system: caspase-3 cell staining; experiment: Caspase-3 staining as biomarker in treated tumors; format: in vivo, mice; conditions: 60 mg/kg IV
Protocol: Caspase staining also was assessed as a biomarker for compound A1 treatment of tumors.

[2] = system: BX-PC3 (human pancreatic cancer cells) xenograft; experiment: Tumor suppression in BX-PC3 xenograft mice; format: in vivo
[3] = Pharmacokinetics after IV and PO dose in ICR mice; format: in vivo; conditions: for half-life: mouse, plasma
Protocol: […] Blood samples were collected at predetermined times and the plasma separated. Plasma was separated from the blood samples collected at 5, 15 and 30 minutes and 1, 2, 4, 8 and 24 hours post-dose.
Drug levels were quantified by the LC/MS/MS method described below. Noncompartmental pharmacokinetic analysis was applied for intravenous administration. A linear trapezoidal rule was used to compute AUC(0-24). The terminal t1/2 and C0 were calculated using the last three and the first three data points, respectively
(§1) Bioanalysis was performed using a Quattro Micro LC/MS/MS instrument in the MRM detection mode, with an internal standard (IS). Briefly, 15 µL plasma samples were prepared for analysis using protein precipitation with 120 μL of acetonitrile. The supernatants were transferred into a 96 well plate and subjected to LC-MS/MS analysis using a Phenomenex Polar-RP HPLC column. The mobile phases were 10 mM NH4HCO3 in water (Solution-A) and 10 mM NH4HCO3 in methanol (Solution-B). […] Quantitation of the analytes was performed in the batch mode with two bracketing calibration curves according to the bioanalytical sample list.

[4] = system: MCF-7 xenografts; experiment: Tumor suppression in MCF-7 xenograft animals; format: in vivo, NCr nu/nu mice; conditions: oral 100 mg/kg
Protocol: (§2) Animals were handled under laminar-flow hoods.
(§3) Gemzar™ administered at a dose of 80 mg/kg IP Q3D was used as a positive control.

[5] = system: A549 (human lung cancer cells) xenograft; experiment: Tumor suppression in A549 xenograft mice; format: in vivo; conditions: oral administration
Description: as §2
The compound was delivered by oral administration for such determinations.

[6] = Pharmacokinetics after IV and PO dose in SD rats; format: in vivo; conditions: for Tmax / half-life / Cmax / Vd: rat, plasma
Protocol: (§4) The pharmacokinetics properties of drugs were also investigated in SD rats and beagle dogs following an intravenous (IV) bolus and oral (PO) doses of drug using similar methods. Blood samples were collected at predetermined times and the plasma separated.
(§5) Drug levels were quantified by the LC/MS/MS method described below. Noncompartmental pharmacokinetic analysis was applied for intravenous administration. […] The terminal t1/2 and C0 were calculated using the last three and the first three data points, respectively
as §1

[7] = Pharmacokinetics after IV and PO dose in beagle dogs; format: in vivo; conditions: for Cmax / Vd / half-life / Tmax: plasma
Protocol: as §4, §5, §1

[8] = Distribution of compound in plasma and tumors of animals; format: in vivo, mice
Protocol: The distribution of compound A1 in the plasma and tumors of animals was assessed.

[9] = system: PC-3 xenografts; experiment: Tumor suppression in PC-3 xenograft animals; format: in vivo, NCr nu/nu mice; conditions: oral 150 mg/kg
Protocol: as §2, §3

[10] = Tumor pharmacokinetic studies, IV QDx6; format: in vivo, mice; conditions: 30 mg/kg IV QD×6
[11] = system: MiaPaca xenografts; experiment: Tumor suppression in MiaPaca xenograft mice; format: in vivo, NCr nu/nu mice
Protocol: as §2
Tumor volume measurements (FIG. 3A) and body weight (FIG. 3B) were recorded on days 3, 6, 8, 10, 13 and 15.
as §3

[12] = Body weight of tumor-bearing xenograft animals; format: in vivo, mice; conditions: BC-PC3 xenograft; IV or IP dosing, days 1-18
[13] = system: MDA-MB-231 xenografts; experiment: Tumor suppression in MDA-MB-231 xenograft animals; format: in vivo, mice; conditions: IV 30 and 60 mg/kg and oral 200 mg/kg
Description: as §2

[14] = system: HUVEC cells; experiment: Human endothelial tube formation assay (BD BioCoat Angiogenesis System); format: cell-based; conditions: 18 hrs
[15] = Sprague-Dawley, IV 2.50 mg/kg, SD rats
[16] = dog, 0.8 mg/kg, IV 0.80 mg/kg, Beagle dogs
[17] = dog, PO 3.80 mg/kg, Beagle dogs
[18] = Sprague-Dawley, PO 8.06 mg/kg, SD-Rats

SMILES: O=C(O)c1ccc2c(c1)nc(Nc1cccc(Cl)c1)c1ccncc12 [Compound A1]
- caspase-3 cell staining levels versus untreated control cells [1]: four-fold greater
- tumor growth ([2]; BX-PC3 xenograft mice, oral administration): significantly inhibited tumor growth
- CLs ([3]; IV 5 mg/kg): 25 mL/min/kg
- Cp0-exp ([3]; IV 5 mg/kg): 13201 ng/mL
- Kel ([3]; IV 5 mg/kg): 0.1586 h⁻¹
- F(0-8 h) ([3]; PO 25 mg/kg): 10.9%
- F(0-inf h) ([3]; PO 25 mg/kg): 18.7%
- Kel ([3]; PO 25 mg/kg): 0.1076 h⁻¹
- half-life ([3]; IV 5 mg/kg): 4.4 h
- half-life ([3]; PO 25 mg/kg): 6.4 h
- tumor growth [4]: significantly inhibited tumor growth
- tumor growth [5]: significantly inhibited tumor growth
- Tmax ([6]; Sprague-Dawley, po, […]): 1 h
- half-life ([6]; Sprague-Dawley, po, […]): 4.5 h
- Cmax [6, 15]: 21300 ng/mL
- Vd [6, 15]: 2.5 L/kg
- half-life [6, 15]: 9.8 h
- AUC(0-12 h) ([7]; IV 0.80 mg/kg, Beagle dogs): 349 ng · h · mI^−1
- AUC(0-Inf) ([7]; IV 0.80 mg/kg, Beagle dogs): 352 ng · h · mI^−1
- CLs ([7]; IV 0.80 mg/kg, Beagle dogs): 38.3 mL/min/kg
- Cp0-exp ([7]; IV 0.80 mg/kg, Beagle dogs): 1406 ng/mL
- Kel ([7]; IV 0.80 mg/kg, Beagle dogs): 0.5546 h⁻¹
- AUC(0-Inf) ([7]; IV MC 0.80 mg/kg, Beagle dogs): 633 ng · h · mI^−1
- Cmax [7, 16]: 1040 ng/mL
- Vd [7, 16]: 4.1 L/kg
- half-life [7, 16]: 1.2 h
- Cmax [7, 17]: 495 ng/mL
- Tmax [7, 17]: 0.5 h
- half-life [7, 17]: 1.2 h
- compound identified in plasma ([8]; 30 mg/kg IV): about 6.8 micromolar
- compound identified in tumors ([8]; 30 mg/kg IV): about 42.9 micromolar
- compound identified in plasma ([8]; 60 mg/kg IV): ~2.2 µM
- compound identified in tumors ([8]; 60 mg/kg IV): ~7.0 µM
- compound identified in plasma ([8]; 200 mg/kg orally): ~9.5 µM
- compound identified in tumors ([8]; 200 mg/kg orally): ~6.4 µM
- tumor growth [9]: significantly inhibited tumor growth

- half life change on repeated dosing [10]: about doubles
- AUC(0-12 h) ([6]; IV 1.56 mg/kg, SD Rats): 39194 ng · h · mI^−1
- AUC(0-Inf) ([6]; IV 1.56 mg/kg, SD Rats): 36659 ng · h · mI^−1
- CLs ([6]; IV 1.56 mg/kg, SD Rats): 1.7 mL/min/kg
- Cp0-exp ([6]; IV 1.56 mg/kg, SD Rats): 47935 ng/mL
- Kel ([6]; IV 1.56 mg/kg, SD Rats): 0.1215 h⁻¹
- tl/2 ([6]; IV 1.56 mg/kg, SD Rats): 5.7 h
- AUC(0-12 h) ([6]; PO 8.06 mg/kg, SD-Rats): 73945 ng · h · mI^−1
- AUC(0-Inf) ([6]; PO 8.06 mg/kg, SD-Rats): 80286 ng · h · mI^−1
- F(0-8 h) ([6]; PO 8.06 mg/kg, SD-Rats): 31.2%
- F(0-12 h) ([6]; PO 8.06 mg/kg, SD-Rats): 37.7%
- F(0-Inf) ([6]; PO 8.06 mg/kg, SD-Rats): 43.8%
- Kel ([6]; PO 8.06 mg/kg, SD-Rats): 0.1077 h⁻¹
- tl/2 ([6]; PO 8.06 mg/kg, SD-Rats): 6.4 h
- Cmax ([6]; Sprague-Dawley, IV 1.56 mg/kg, SD Rats): 34300 ng/mL
- Cmax [6, 18]: 6670 ng/mL
- Tmax [6, 18]: 2 h
- Vd ([6]; IV 1.56 mg/kg, SD Rats): 0.6 L/kg
- AUC(0-12 h) ([7]; IV 2.00 mg/kg, Dog): 1414 ng · h · mI^−1
- AUC(0-Inf) ([7]; IV 2.00 mg/kg, Dog): 1437 ng · h · mI^−1
- CLs ([7]; IV 2.00 mg/kg, Dog): 23.3 mL/min/kg
- Cp0-exp ([7]; IV 2.00 mg/kg, Dog): 3847 ng/mL
- Kel ([7]; IV 2.00 mg/kg, Dog): 0.1360 h⁻¹
- tl/2 ([7]; IV 2.00 mg/kg, Dog): 5.1 h
- Cmax ([7]; beagle, IV 2.00 mg/kg, Dog): 3070 ng/mL
- Vd ([7]; beagle, IV 2.00 mg/kg, Dog): 10.2 L/kg
- Cmax ([7]; beagle, PO 7.50 mg/kg, Dog): 1210 ng/mL
- Tmax ([7]; beagle, PO 7.50 mg/kg, Dog): 1 h
SMILES: C#Cc1cccc(Nc2nc3cc(C(=O)O)ccc3c3cncnc23)c1 [Compound A2]
- tumor progression (FIG. 4A) ([2]; BC-PC3 xenograft, 60 mg/kg QD IV, 50 mg/kg BID IV or 100 mg/kg BID IP): significantly inhibited tumor progression
- tumor progression ([11]; IV 50 and 60 mg/kg and IP 100 mg/kg): significantly inhibited tumor progression
- tumor progression ([11]; oral 100 mg/kg QD×8 and 200 mg/kg QD×6): significantly inhibited tumor progression
- body weight (FIG. 4B) [12]: not significantly altering body weight
- tumor progression [13]: significantly inhibited tumor progression
- concentration range inhibiting tube formation [14]: 1 to 5 µM
